Usually IC50 stands for the concentration needed to halve the response being measured.

For four compounds, GI50, IC50 and fraction unbound results are on record in patent US11945812B2, “Annulated 2-amino-3-cyano thiophenes and derivatives for the treatment of cancer” (Boehringer Ingelheim International GmbH, priority 2020, dated 2024).

Molecules are shown by their SMILES. Like-named read-outs stand apart in the source and are kept apart here.

Data set [1] has as its target Ba/F3 cells bearing a KRAS G12C mutation (Homo sapiens, UniProt P01116, G12C, cells depend on it). The data set is described as follows: Ba/F3 cell model proliferation assay (AlamarBlue, 72 h). Format: cell-based. The note with it: Ba/F3 KRAS G12C cells, 72 h, 10% FCS, uncorrected; read-out: IC50 Ba/F3 KRASG12C. The method, then: Ba/F3 Cell Model Generation and Proliferation Assay
Plasmids containing KRASG12 mutants were obtained from GeneScript. To generate KRASG12-dependent Ba/F3 models, Ba/F3 cells were transduced with retroviruses containing vectors that harbor KRASG12 isoforms. Platinum-E cells (Cell Biolabs) were used for retrovirus packaging. Retrovirus was added to Ba/F3 cells. To ensure infection, 4 μg/mL polybrene was added and cells were spinfected. […] Cells with an infection efficiency of 10% to 20% were further cultivated and puromycin selection with 1 μg/mL was initiated. As a control, parental Ba/F3 cells were used to show selection status. Selection was considered successful when parental Ba/F3 cells cultures died. To evaluate the transforming potential of KRASG12 mutations, the growth medium was no longer supplemented with IL-3. Ba/F3 cells harboring the empty vector were used as a control. Approximately ten days before conducting the experiments, puromycin was left out.
All treatments were performed in technical duplicates. The assay is run using a fully automated robotic system. Treated cells were incubated for 72 h at 37° C. with 5% CO2. AlamarBlue™ (ThermoFisher), a viability stain, was added and fluorescence measured in the PerkinElmer Envision HTS Multilabel Reader.
In general terms: The colour change of resazurin is a common sign of viable cells or microbes.

For data set [2], the target named is T1, KRAS G12C::SOS1 protein-protein interaction (Homo sapiens, UniProt P01116, C118S/C51S/C80L/G12C).
T1 construct: His6 (N); host or cells: E. coli
The data set is described as follows: KRAS::SOS1 AlphaScreen binding assay. The text has this: KRAS::SOS1 AlphaScreen Binding Assay
Reagents: • GST-tagged SOS1 (564_1049_GST_TEV_ECO) produced in-house • GST-TEV-SOS1 (564-1049) is purchased from Viva Biotech Ltd. • The expression construct of KRAS G12C (amino acids 1-169 of reference sequence P01116-2 (uniprot), with additional mutations: C51S, C80L, and C118S) containing a C-terminal avi-tag was obtained by gene synthesis (GeneArt, Thermo Fisher) in donor vector (pDONR-221) and transferred by recombinant cloning into pDEST17 vector bearing an N-terminal His6-tag. The protein was expressed in E. coli and the purified protein was biotinylated with the E. coli biotin ligase (BirA) before usage. • GDP (Sigma Cat No G7127) • AlphaLISA Glutathione Acceptor Beads (PerkinElmer, Cat No AL109) • AlphaScreen Streptavidin Donor Beads (PerkinElmer Cat No 6760002) • Assay plates: Proxiplate-384 PLUS, white (PerkinElmer, Cat No 6008289)
Assay Buffer: • 1×PBS • 0.1% BSA • 0.05% Tween 20
7.5 nM (final assay concentration) KRAS G12C, 10 μM (final assay concentration) GDP and 5 nM (final assay concentration) GST-SOS1 are mixed in assay buffer prior to use and kept at room temperature.
AlphaLISA Glutathione Acceptor Beads and AlphaScreen Streptavidin Donor Beads are mixed in assay buffer at a concentration of 10 μg/mL (final assay concentration) each prior to use and kept at room temperature.
Compounds are diluted to a final start concentration of 100 μM and are tested in duplicate. Assay-ready plates (ARPs) are generated using an Access Labcyte Workstation with a Labcyte Echo 550 or 555 accoustic dispenser. For compound a start concentration of 100 μM, 150 nL of compound solution is transferred per well in 11 concentrations in duplicate with serial 1:5 dilutions.
The assay is run using a fully automated robotic system in a darkened room below 100 Lux. 10 μL of KRAS::SOS1 GDP mix is added into columns 1-24 to the 150 nL of compound solution (final dilution in the assay 1:100, final DMSO concentration 1%).
After 30 minutes incubation time 5 μL of bead mix is added into columns 1-23. Plates are kept at room temperature in a darkened incubator. After further 60 minutes incubation, the signal is measured using a PerkinElmer Envision HTS Multilabel Reader using the AlphaScreen specifications from PerkinElmer. Each plate contains the following controls: • diluted DMSO+KRAS::SOS1 GDP mix+bead mix • diluted DMSO+KRAS::SOS1 GDP mix
IC50 values are calculated and analyzed using a 4 parametric logistic model.
Tables of example compounds disclosed herein contain IC50 values determined using the above assay.

The test system of a further data set is SW837 cells. Put plainly: SW837 CTG proliferation assay (CRC). Format: cell-based. Conditions: Homo sapiens. On the procedure:
SW837 CTG Proliferation Assay (CRC)
SW837 cells (ATCC #CCL-235) were grown in cell culture flasks (175 cm^2) using L-15 10% FCS, 1% L-Glu, 1×NEAA and 1×Na-Pyrovat. Cultures were incubated at 37° C. and 0% CO2 in a humidified atmosphere, with medium change or subcultivation 2-3 times a week. Materials used for the assay were CulturPlate-384, White Opaque 384-well Microplate, Sterile and Tissue Culture Treated (Perkin Elmer #6007680), Leibovitz L15 Medium and FBS # SH30071.03 (HyClone).
(§1) The proliferation assays started (day1) with seeding cells in flat bottom 384 well microtiter plates in 90 μL L-15 10% FCS, 1% L-Glu, 1×NEAA and 1× Na-Pyrovat at a density of 500 cells/well. Any other luminescence compatible plate format is possible. On day 2, 10 μL dilutions of the test compounds covering a concentration range between app. 0, 1 and 10.000 nM were added to the cells. Cells were incubated for 5 days in a humidified, CO2 controlled (no CO2) incubator at 37° C. On day 7 100 μL of Cell Titer Glow reagent (Cell titer Glo Luminescent Cat. No. G7571, Promega) were added to each well and incubated for additional 10 min at room temperature (with agitation). Luminescence was measured on a Wallac Victor using standard luminescence read out. IC50 values were calculated using standard Levenburg Marquard algorithms (GraphPad Prism).

A further data set relates to NCI-H358 cells. The data set is described as follows: NCI-H358 CTG proliferation assay (120 h) (NSCLC). Format: cell-based. Conditions: Homo sapiens, read-out: IC50 NCl-H358. The method, then:
NCI-H358 CTG Proliferation Assay (120 h) (NSCLC)
NCI-H358 cells (ATCC No. CRL-5807) were dispensed into white bottom opaque 96 well plates (Perkin Elmer cat no. 5680) at a density of 2000 cells per well in 100 μL RPMI-1640 ATCC-Formulation (Gibco # A10491)+10% FCS. Cells were incubated overnight at 37° C. in a humidified tissue culture incubator at 5% CO2. Compounds (10 mM stock in DMSO) were added at logarithmic dose series using the HP Digital Dispenser D300 (Tecan), normalizing for added DMSO. For the TO time point measurement, untreated cells were analyzed at the time of compound addition. Plates were incubated for 120 hours, and cell viability was measured using CellTiter-Glo luminescent cell viability reagent (Promega product code G7570). Viability (stated as percent of control) is defined as relative luminescence units RLU of each well divided by the RLU of cells in DMSO controls. IC50 values were determined from viability measurements by non-linear regression using a four parameter model.

Data set [3] deals with ERK phosphorylation in NCI-H358_Cas9_SOS2. The data set is described as follows: ERK phosphorylation assay 2 (AlphaLISA SureFire Ultra p-ERK1/2), SOS2 knock-out. Conditions: Homo sapiens, NCI-H358; assay 2 (marked with *); read-out: IC50 H358 pERK. Format: cell-based. The text has this: (§2) ERK Phosphorylation Assay
(§3) Materials Used for the Assay;

The next data set concerns MiaPaCa-2 cells. The data set is described as follows: MiaPaCa-2 CTG proliferation assay (pancreatic cancer). Format: cell-based. The note with it: Homo sapiens, MIA PaCa-2, 120 h, read-out: IC50 MiaPACA2. The method, then:
MiaPaCa-2 CTG Proliferation Assay (Pancreatic Cancer)
MiaPaCa-2 cells (ATCC® CRM-CRL-1420™) were grown in cell culture flasks (175 cm^2) using DMEM medium supplemented with 10% fetal bovine serum. […] Materials used for the assay were CulturPlate-384, White Opaque 384-well microplate, Sterile and Tissue Culture Treated (Perkin Elmer #6007680), DMEM medium and FBS # SH30071.03 (HyClone).
as §1, with “μL DMEM medium supplemented with” for “μL L-15”, “10% FBS” for “10% FCS, 1% L-Glu, 1×NEAA and 1× Na-Pyrovat”, “humidified, incubator with 5%” for “humidified,”, “CO2” for “CO2 controlled (no CO2) incubator”, “100 μl” for “100 μL”

Data set [4] has as its system ERK phosphorylation in NCI-H358 (KRAS G12C mutation). Put plainly: ERK phosphorylation assay 1 (AlphaLISA SureFire Ultra p-ERK1/2). Conditions: Homo sapiens, assay 1 (not marked with *), read-out: IC50 H358 pERK. Format: cell-based.
From the text: as §2, §3

Data set [5] is described as follows: Plasma protein binding (equilibrium dialysis), human plasma. Format: in vitro ADME. The note with it: read-out: PPB human fu. On the procedure:
(§4) Plasma Protein Binding (PPB)
(§5) Binding of test compound to plasma was determined using equilibrium dialysis (ED) and quantitative mass spectrometry interfaced with liquid chromatography (LC-MS). In brief, ED was performed with dialysis devices consisting of two chambers separated by a semipermeable membrane with a molecular weight cut-off of 5-10 kg/mol. One chamber was filled with commercially sourced plasma (mouse and human plasma, respectively) or serum (10% FCS in PBS) containing 1-10 μmol/L test compound and the other chamber was filled with phosphate-buffer saline (PBS) with or without dextran. The dialysis chamber was incubated for 3-5 hours at 37° C. After incubation, protein was precipitated from aliquots of each chamber and the concentration of test compound in the supernatant of the plasma-containing compartment (cplasma) and of the buffer-containing compartment (Cbuffer) was determined by LC-MS. The fraction of unbound test compound (not bound to plasma) (fu) was calculated according to the following equation: […]
(In general: Equilibrium dialysis compares concentrations on both sides of a semipermeable membrane.)

A short description of data set [6]: Plasma protein binding (equilibrium dialysis), mouse plasma. Format: in vitro ADME. Conditions: read-out: PPB mouse fu. The method, then:
as §4, §5

The nature of data set [7]: Plasma protein binding (equilibrium dialysis), serum 10% FCS in PBS. Format: in vitro ADME. The note with it: bovine, 10% FCS in PBS (serum), read-out: PPB 10% FCS fu. The method, then: as §4, §5
Setting [8] is: SW837 CTG proliferation, read-out: IC50 SW837.
[9] abbreviates: MiaPaCa-2 CTG proliferation, 5 days.

T1 sequence (P01116 1-169 isoform P01116-2 G12C/C51S/C80L/C118S): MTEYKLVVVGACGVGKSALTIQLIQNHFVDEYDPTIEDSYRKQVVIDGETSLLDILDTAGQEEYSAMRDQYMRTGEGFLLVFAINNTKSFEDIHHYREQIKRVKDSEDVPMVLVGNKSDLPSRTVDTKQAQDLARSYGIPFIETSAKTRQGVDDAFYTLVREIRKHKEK
Ba/F3 cells bearing a KRAS G12C mutation, sequence (P01116 whole entry G12C, canonical isoform): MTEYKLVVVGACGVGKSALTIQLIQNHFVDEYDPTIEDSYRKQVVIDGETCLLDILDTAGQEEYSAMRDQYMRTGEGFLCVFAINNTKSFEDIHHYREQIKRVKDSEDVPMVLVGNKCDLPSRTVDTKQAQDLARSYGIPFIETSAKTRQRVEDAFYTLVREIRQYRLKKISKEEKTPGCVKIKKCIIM

For `C=CC(=O)N1CCN(c2cc(O[C@@H](C)[C@@H]3CCCN3C)nc(-c3cc(C4(C)CCCc5sc(N)c(C#N)c54)no3)n2)CC1` (stereo partly shown) [Ic-1], the GI50 in data set [1] amounted to 1.5 nM. In addition, the concentration for half-maximal inhibition (IC50) in data set [2] (KRAS G12C::SOS1 AlphaScreen) stood at 3 nM; with SW837 cells (setting [8]) it was 1.3 nM; in the data set on NCI-H358 cells, 3.13 nM; in [3], 1.6 nM; with MiaPaCa-2 cells (setting [9]) it was 23.8 nM.

On to `C=CC(=O)N1CCN(c2cc(O[C@@H](C)[C@@H]3CCCN3C)nc(-c3cc([C@@]4(C)CCCc5sc(N)c(C#N)c54)no3)n2)[C@H](C)C1` [Ic-2], for which the GI50 in data set [1] turned out to be 2.3 nM. Besides, the half-inhibitory concentration (IC50) was 2 nM in [2] (KRAS G12C::SOS1 AlphaScreen); 3.67 nM with SW837 cells (setting [8]); 4.75 nM in the data set with NCI-H358 cells; 3.7 nM in data set [3]; 9.01 nM with MiaPaCa-2 cells (setting [9]).

On to `C=CC(=O)N1CCN(c2cc(N3CCN(C)CC3)nc(-n3cc(C4(C)CCCc5sc(N)c(C#N)c54)cn3)c2)CC1` (stereo not shown) [Ie-1], for which the IC50 came to 280 nM in [2] (KRAS G12C 7.5 nM, GST-SOS1 5 nM, GDP 10 μM) and 125 nM in data set [4].

With `C=CC(=O)N1CCN(c2nc(=O)n(-c3c(C)ccnc3C(C)C)c3nc(-c4c(O)cccc4F)c(F)cc23)[C@@H](C)C1` [sotorasib, reference compound], the IC50 amounted to 17 nM with SW837 cells (SW837, read-out: IC50 SW837) and 49 nM with MiaPaCa-2 cells. Besides, the fraction unbound came to 0.027 in [5], 0.094 in [6] and 0.774 in data set [7].
